According to patent US4129648A, “Method for reducing endogenous prostaglandin synthesis” (priority 1977, dated 1978):

System: prostaglandin synthetase of bovine seminal vesicles
Test: Inhibition of conversion of arachidonic acid into PGE2 and PGF2α by BSV prostaglandin synthetase, cascade bioassay
Assay type: biochemical
Experimental: The high molecular weight mammalian blood plasma or serum extract of the present invention was tested for PG synthesis-inhibiting properties by determining the ability of the extract to inhibit the conversion of arachidonic acid into PGE2 and PGF2α by PG synthetase present in BSV, in the presence of optimal amounts of the cofactor glutathione, (reduced form). Specifically, the inhibitory properties of the extract were determined by a cascade bioassay technique [Collier et al., Brit. J. Pharmac., 58, 193-199 (1976)] involving measurement of prostaglandin activity against response.
The ability of the purified mammalian serum extract to inhibit the enzymatic conversion of arachidonic acid by prostaglandin synthetase obtained from BSV was determined by bioassay on tissues which are known to be contracted by naturally occurring PGs. Segments of rat or hamster stomach fundus (stomach strip) were obtained as described in Brit. J. Pharmacol. Vol. 5, 173 (1950), Vol. 6, 32 (1953), Vol. 12, 344 (1957), and Vol. 23, 351 (1964). […]
A dose of standard PGE2 is put over the tissues by means of the roller pump and the tissue response measured by recording the tissue contraction. […] Alternately, the protein content of the solution can be determined by known techniques, such as the biuret reaction or Kjeldahl method, and the test value expressed in ng. […]

“haptoglobin obtained from Cohn subfraction IV4 by the above procedure: haptoglobin from Cohn subfraction IV4 by second procedure: ethacridine lactate precipitation and chromatography” was tested, and the “Inhibition of PG synthesis (in words)” value was “demonstrated an ability to inhibit”.
